Test results: US7432392B2, “Ester derivatives and medical use thereof” (Japan Tobacco Inc., priority 2003, dated 2008)

Legend:
[1] = test system: apolipoprotein B secretion from HepG2 cells; experiment: Inhibition of apolipoprotein B secretion from HepG2 cells; type: cell-based; conditions: Homo sapiens, about 20 hours incubation, apo B in supernatant by ELISA
Experimental: HepG2 cells were suspended in Dulbecco's Modified Eagle's Medium (DMEM) (containing 10% fetal bovine serum, 100 units/mL penicillin and 100 μg/mL streptomycin), and placed on a 96-well plate (4×10^4 cells/well), then incubated for 24 hours. After removal of the medium, DMEM was replaced by a medium containing a sample dissolved in DMSO or a medium containing DMSO (concentration of DMSO: 0.5%) and incubation was further performed for about 20 hours, after which the supernatant was recovered, and concentration of apo B in the supernatant was assayed by Enzyme-Linked Immunosorbent Assay (ELISA)
ELISA was carried out as follows. Anti-human apo B monoclonal antibody (0.5 μg/well) diluted with a 50 mM sodium carbonate/sodium bicarbonate buffer was placed in a 96-well plate for ELISA, and allowed to stand at room temperature for 15 hours. After washing the plate, a blocking solution (250 μL/well) was placed in the well, and allowed to stand at room temperature for 1.5 hours. After washing the plate, a standard and a sample (100 μL/well) were placed in the well and allowed to stand at room temperature for 1.5 hours. The standard was prepared by adjusting the concentration of the purified human apo B with the DMEM to 0 to 250 ng/mL. After washing the plate, an anti-human apo B polyclonal antibody labeled with a horse radish peroxidase which was diluted in 1:1000 with DEME (100 μL/well) was added, and allowed to stand at room temperature for 1.5 hours. After washing the plate, 2,2-azinobis(3-ethylbenzothiazoline-6-sulfonic acid) solution (100 μL/well) was placed in the well, and allowed to stand at room temperature for 0.5 hour. The reaction was stopped by addition of 2% oxalic acid (100 μL/well), and absorbency at 405 nm was measured. Concentration of apo B in the sample was calculated on the basis of a standard curve of the standard. Inhibition rate (%) was calculated from the assayed values in accordance with the following equation. Inhibition rate (%)=100×(1 minus (concentration of apo B in sample group/concentration of apo B in DMSO group).
Based on the above equation, 50% inhibition concentration (IC50) was determined.

[2] = Metabolic stability test in liver S9 (human); type: in vitro ADME; conditions: Human liver S9, 2 mg protein/mL, 37° C.
Experimental: (§1) Human and hamster liver S9 (final concentration: 2 mg protein/mL), and human and hamster small intestine S9 (final concentration: 2 mg protein/mL) were each suspended in 100 mM potassium phosphate buffer (pH 7.4, containing β-nicotinamide adenine dinucleotide phosphate: 1.3 mM, D-glucose-6-phosphate: 3.3 mM, magnesium chloride: 3.3 mM, and glucose-6-phosphate dehydrogenase: 0.4 U/mL). The suspensions were mixed with a solution of a sample (Example 1) in DMSO. The solutions were incubated at 37° C. for 0, 10 and 60 minutes, and an organic solvent was added thereto. The solutions were centrifuged, and the concentration of the sample (unchanged form) in the supernatant was determined by high performance liquid chromatography/mass spectrometry (LC/MS). Based on the data obtained, remaining rate (%) was calculated according to the following equation. Remaining rate(%)=amount of sample 10 or 60 minutes after incubation/amount of sample at zero time after incubation×100

[3] = Metabolic stability test in liver S9 (hamster); type: in vitro ADME; conditions: Hamster liver S9, 2 mg protein/mL, 37° C.
Experimental: as §1

CCOC(=O)C(COC(=O)Cc1ccc(NC(=O)c2ccccc2-c2ccc(C(F)(F)F)cc2)c(OC(C)=O)c1)(C(=O)OCC)c1ccccc1 [Example 1, 2-(2-{3-acetoxy-4-[(4′-trifluoromethyl-biphenyl-2-carbonyl)amino]phenyl}acetoxymethyl)-2-phenylmalonic acid diethyl ester]
IC50 [1]: < 1 µM | Remaining rate (%) after 10 minutes ([2]; 10 minutes): 6.2% | Remaining rate (%) after 60 minutes ([2]; 60 minutes): 1.8% | Remaining rate (%) after 10 minutes ([3]; 10 minutes): 1.6% | Remaining rate (%) after 60 minutes ([3]; 60 minutes): 0.0%
